Where two headings read alike, the source gives them in different places.
How the values were obtained:
KM12 [1] = assay: cells; details: Homo sapiens, KM12
RXF 393 = assay: cells; details: Homo sapiens, RXF 393
TK-10 [2] = assay: cells; details: Homo sapiens, TK-10
OVCAR-3 = assay: cells; details: Homo sapiens, OVCAR-3
MDA-MB-435 [3] = assay: cells; details: Homo sapiens, MDA-MB-435
MDA-MB-231/ATCC [4] = system: MDA-MB-231/ATCC
MDA-MB-435 [5] = details: MDA-MB-435 (Melanoma panel)
CCRF-CEM [6] = assay: cells; details: Homo sapiens
U251 = assay: cells; details: Homo sapiens, U-251
HOP-62 = details: HOP-52
MCF7 = assay: cells; details: Homo sapiens, MCF7
MDA-MB-231/ATCC [7] = assay: cells; details: Homo sapiens, MDA-MB-231
CCRF-CEM [8] = system: CCRF-CEM
KM12 [9] = system: KM12
IGROV1 = assay: cells; details: Homo sapiens, IGROV-1
TK-10 [10] = system: TK-10
[11] = Log10 Concentration −4.0, Molar
[12] = Log10 Concentration −5.0, Molar
[13] = Log10 Concentration −6.0, Molar
[14] = Log10 Concentration −7.0, Molar
[15] = Log10 Concentration −8.0, Molar

Structure (SMILES): CNC(=O)NC[C@H]1O[C@@H](n2cnc3c(NC(=O)Nc4ccccc4)ncnc32)C(O[Si](C)(C)C(C)(C)C)[C@H]1O[Si](C)(C)C(C)(C)C (some centres unmarked) [Compound 25, 2′,3′-Bis-O-(tert-butyldimethylsilyl)-5-deoxy-5′-[(N-methylcarbamoyl)amino]-N^6-(N-phenylcarbamoyl)adenosine]
- TGI (SK-MEL-2): 5.54E−6 Molar
- Percent Growth (SK-MEL-2; [11]): −67%
- Percent Growth (SK-MEL-2; [12]): −35%
- Percent Growth (SK-MEL-2; [13]): 105%
- Percent Growth (SK-MEL-2; [14]): 110%
- Percent Growth (SK-MEL-2; [15]): 106%
- TGI (OVCAR-5): 2.52E−5 Molar
- Percent Growth (OVCAR-5; [11]): −43%
- Percent Growth (OVCAR-5; [12]): 29%
- Percent Growth (OVCAR-5; [13]): 103%
- Percent Growth (OVCAR-5; [14]): 99%
- Percent Growth (OVCAR-5; [15]): 96%
- TGI (UACC-257): 2.02E−5 Molar
- Percent Growth (UACC-257; [11]): −24%
- Percent Growth (UACC-257; [12]): 11%
- Percent Growth (UACC-257; [13]): 104%
- Percent Growth (UACC-257; [14]): 100%
- Percent Growth (UACC-257; [15]): 97%
- GI50 (KM12 [1]): 2.13 µM
- IC50 (KM12 [1]): 8.05 µM
- GI50 (RXF 393): 2.14 µM
- IC50 (RXF 393): 7.5 µM
- TGI (DU-145): 5.71E−6 Molar
- Percent Growth (DU-145; [11]): −89%
- Percent Growth (DU-145; [12]): −35%
- Percent Growth (DU-145; [13]): 109%
- Percent Growth (DU-145; [14]): 107%
- Percent Growth (DU-145; [15]): 103%
- GI50 (TK-10 [2]): 4.29 µM
- IC50 (TK-10 [2]): > 100 µM
- GI50 (OVCAR-3): 2.6 µM
- IC50 (OVCAR-3): 98.2 µM
- GI50 (MDA-MB-435 [3]): 3.41 µM
- IC50 (MDA-MB-435 [3]): > 100 µM
- TGI (MDA-MB-231/ATCC [4]): 5.12E−6 Molar
- Percent Growth (MDA-MB-231/ATCC [4]; [11]): −76%
- Percent Growth (MDA-MB-231/ATCC [4]; [12]): −20%
- Percent Growth (MDA-MB-231/ATCC [4]; [13]): 106%
- Percent Growth (MDA-MB-231/ATCC [4]; [14]): 109%
- Percent Growth (MDA-MB-231/ATCC [4]; [15]): 105%
- TGI (MDA-MB-435 [5]): 2.91E−5 Molar
- Percent Growth (MDA-MB-435 [5]; Log10 Concentration −4.0 Molar): −10%
- Percent Growth (MDA-MB-435 [5]; Log10 Concentration −5.0 Molar): 9%
- Percent Growth (MDA-MB-435 [5]; Log10 Concentration −6.0 Molar): 97%
- Percent Growth (MDA-MB-435 [5]; Log10 Concentration −7.0 Molar): 102%
- Percent Growth (MDA-MB-435 [5]; Log10 Concentration −8.0 Molar): 102%
- GI50 (CCRF-CEM [6]): 3.59 µM
- IC50 (CCRF-CEM [6]): > 100 µM
- TGI (PC-3): >1.00E−4 Molar
- Percent Growth (PC-3; [11]): 4%
- Percent Growth (PC-3; [12]): 6%
- Percent Growth (PC-3; [13]): 83%
- Percent Growth (PC-3; [14]): 91%
- Percent Growth (PC-3; [15]): 93%
- TGI (BT-549): 9.18E−6 Molar
- Percent Growth (BT-549; [11]): −35%
- Percent Growth (BT-549; [12]): −10%
- Percent Growth (BT-549; [13]): 103%
- Percent Growth (BT-549; [14]): 112%
- Percent Growth (BT-549; [15]): 113%
- GI50 (U251): 2.96 µM
- IC50 (U251): > 100 µM
- TGI (HOP-62): 1.71E−5 Molar
- Percent Growth (HOP-62; Log10 Concentration −4.0 Molar): −55%
- Percent Growth (HOP-62; Log10 Concentration −5.0 Molar): 25%
- Percent Growth (HOP-62; Log10 Concentration −6.0 Molar): 105%
- Percent Growth (HOP-62; Log10 Concentration −7.0 Molar): 108%
- Percent Growth (HOP-62; Log10 Concentration −8.0 Molar): 102%
- GI50 (MCF7): 2.69 µM
- IC50 (MCF7): > 100 µM
- GI50 (MDA-MB-231/ATCC [7]): 2.81 µM
- IC50 (MDA-MB-231/ATCC [7]): 28.3 µM
- TGI (CCRF-CEM [8]): >1.00E−4 Molar
- Percent Growth (CCRF-CEM [8]; [11]): 4%
- Percent Growth (CCRF-CEM [8]; [12]): 9%
- Percent Growth (CCRF-CEM [8]; [13]): 101%
- Percent Growth (CCRF-CEM [8]; [14]): 109%
- Percent Growth (CCRF-CEM [8]; [15]): 104%
- TGI (KM12 [9]): 4.41E−6 Molar
- Percent Growth (KM12 [9]; [11]): −74%
- Percent Growth (KM12 [9]; [12]): −66%
- Percent Growth (KM12 [9]; [13]): 107%
- Percent Growth (KM12 [9]; [14]): 111%
- Percent Growth (KM12 [9]; [15]): 104%
- GI50 (IGROV1): 2.74 µM
- IC50 (IGROV1): > 100 µM
- TGI (TK-10 [10]): 7.26E−5 Molar
- Percent Growth (TK-10 [10]; [11]): −2%
- Percent Growth (TK-10 [10]; [12]): 14%
- Percent Growth (TK-10 [10]; [13]): 112%
- Percent Growth (TK-10 [10]; [14]): 113%
- Percent Growth (TK-10 [10]; [15]): 110%
- TGI (HOP-92): 5.16E−6 Molar
- Percent Growth (HOP-92; [11]): −50%
- Percent Growth (HOP-92; [12]): −25%
- Percent Growth (HOP-92; [13]): 69%
- Percent Growth (HOP-92; [14]): 80%
- Percent Growth (HOP-92; [15]): 85%

— US20100152434A1, “Protein Kinase-binding Nucleosides and Associated Methods” (priority 2007, published 2010)
